Laboratory results as given in US10450306B2, “Isoxazole analogs as FXR agonists and methods of use thereof” (Enanta Pharmaceuticals, Inc., priority 2016, dated 2019).

Target: T1, human FXR (NR1H4) (Homo sapiens, UniProt Q96RI1)
T1 construct: host or cells: CHO (Chinese hamster ovary) reporter cells
T1 sequence (Q96RI1 1-486): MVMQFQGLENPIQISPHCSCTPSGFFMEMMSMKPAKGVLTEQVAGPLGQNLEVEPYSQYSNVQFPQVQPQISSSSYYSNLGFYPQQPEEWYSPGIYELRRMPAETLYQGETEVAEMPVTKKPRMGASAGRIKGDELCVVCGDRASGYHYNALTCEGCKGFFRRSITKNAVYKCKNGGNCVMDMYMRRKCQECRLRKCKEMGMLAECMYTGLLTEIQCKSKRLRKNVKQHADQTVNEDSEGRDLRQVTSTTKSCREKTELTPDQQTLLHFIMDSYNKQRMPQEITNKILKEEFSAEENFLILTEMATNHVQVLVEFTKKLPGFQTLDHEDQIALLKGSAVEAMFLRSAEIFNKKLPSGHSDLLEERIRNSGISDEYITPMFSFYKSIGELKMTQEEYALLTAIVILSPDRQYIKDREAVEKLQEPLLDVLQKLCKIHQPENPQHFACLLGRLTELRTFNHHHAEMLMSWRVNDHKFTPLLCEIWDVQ
Assay: Human FXR (NR1H4) Assay: Gal4 promoter driven luciferase reporter transactivation in CHO cells (Indigo Bioscience kit IB00601); on Efficacy (%): efficacy normalized to CDCA set as 100%
Type: cell-based
Conditions: for Emax: CHO, read-out: Efficacy (%); for EC50: Human FXR (NR1H4) reporter assay, potency ranges
In short: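 CHO reporter cells expressing human FXR with an FXR-responsive promoter-driven luciferase were treated with compound dose series at 0.2% DMSO for 22 h at 37 °C. Luciferase activity was then read by luminescence as the measure of FXR activation.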

| Structure (SMILES) | Emax | EC50 |
| --- | --- | --- |
| O=C(NS(=O)(=O)C1CC1)c1ccc(N2C3CCC2CC(NCc2c(-c4c(Cl)cccc4Cl)noc2C2CC2)C3)nc1 (stereo not shown) [Example 400-37] | 82.5% | 1 to 100 nM |
| CC1(S(=O)(=O)NC(=O)c2cc3sc(N4C5CCC4CC(NCc4c(-c6c(Cl)cccc6Cl)noc4C4CC4)C5)nc3c3ccccc23)CC1 (stereo not shown) [Example 400-33] | 91% | < 1 nM |
| O=C(NS(=O)(=O)C1CC1)c1cc(F)c2nc(N3CCC(NCc4c(-c5ccccc5OC(F)(F)F)noc4C4CC4)CC3)sc2c1 [Example 900-3] | 44.8% | 100 to 1000 nM |
| CC1(S(=O)(=O)NC(=O)c2ccc(N3C4CCC3CC(NCc3c(-c5ccccc5OC(F)(F)F)noc3C3CC3)C4)nc2)CC1 (stereo not shown) [Example 900-14] | 46.5% | 100 to 1000 nM |
| O=C(O)c1ccc(N2C3CCC2CC(NCc2c(-c4ccccc4OC(F)(F)F)noc2C2CC2)C3)nc1 (stereo not shown) [Example 597] | 83.5% | 1 to 100 nM |
| COC(=O)c1ccc2nc(N3C4CCC3CC(NCc3c(-c5c(Cl)cccc5Cl)noc3C3CC3)C4)c(OC)nc2c1 (stereo not shown) [Example 197] | 115% | 100 to 1000 nM |
| CCOC(=O)c1ccc2nc(N3C4CCC3CC(NCc3c(-c5ccccc5OC(F)(F)F)noc3C3CC3)C4)sc2c1 (stereo not shown) [Example 696] | 59.1% | 1 to 100 nM |
| O=C(O)c1ccc2nc(N3C4CCC3CN(Cc3c(-c5c(Cl)cccc5Cl)noc3C3CC3)C4)sc2c1 [Example 176] | 228% | 100 to 1000 nM |
| CC1(S(=O)(=O)NC(=O)c2cc(F)c3nc(N4CCC(NCc5c(-c6ccccc6OC(F)(F)F)noc5C5CC5)CC4)sc3c2)CC1 [Example 900-4] | 84.8% | > 1000 nM |
| COC(=O)c1cc(F)c2nc(N3C4CCC3CC(NCc3c(-c5ccccc5C(F)(F)F)noc3C3CC3)C4)sc2c1 (stereo not shown) [Example 1407] | 92.5% | 1 to 100 nM |
| O=C(O)c1cc2sc(N3C4CCC3CC(NCc3c(-c5c(Cl)cccc5Cl)noc3C3CC3)C4)nc2cc1-c1ccccc1 (stereo not shown) [Example 200-24] | 96.2% | 1 to 100 nM |
| Cc1cc2nc(N3C4CCC3CC(NCc3c(-c5c(Cl)cccc5Cl)noc3C3CC3)C4)sc2cc1C(=O)NS(=O)(=O)N1CCCCC1 (stereo not shown) [Example 400-12] | 115% | < 1 nM |
| O=C(NS(=O)(=O)C1CC1)c1ccc2nc(N3C4CCC3CC(NCc3c(-c5ccccc5C(F)(F)F)noc3C3CC3)C4)oc2c1 (stereo not shown) [Example 1424] | 148% | 1 to 100 nM |
| O=C(NS(=O)(=O)N1CCCCC1)c1cc(F)c2nc(N3CCC(NCc4c(-c5c(Cl)cccc5Cl)noc4C4CC4)CC3)sc2c1 [Example 400-8] | 79% | 1 to 100 nM |
| COC(=O)c1cc(F)c2nc(N3C4CCC3CC(NCc3c(-c5c(Cl)cccc5Cl)noc3C3CC3)C4)sc2c1 (stereo not shown) [Example 3] | 137% | 1 to 100 nM |
| CC1(S(=O)(=O)NC(=O)c2cnc3nc(N4C5CCC4CC(NCc4c(-c6c(Cl)cccc6Cl)noc4C4CC4)C5)sc3n2)CC1 (stereo not shown) [Example 400-26] | 97.2% | < 1 nM |
| O=C(O)c1cc(C2CC2)c2nc(N3C4CCC3CC(NCc3c(-c5ccccc5C(F)(F)F)noc3C3CC3)C4)sc2c1 (stereo not shown) [Example 1410] | 74.5% | < 1 nM |
| CN(C)S(=O)(=O)NC(=O)c1ccc2nc(N3C4CCC3CN(Cc3c(-c5c(Cl)cccc5Cl)noc3C3CC3)C4)sc2c1 [Example 280] | 242% | 1 to 100 nM |
| O=C(NS(=O)(=O)C1CC1)c1cc(C2CC2)c2nc(N3C4CCC3CC(NCc3c(-c5ccccc5C(F)(F)F)noc3C3CC3)C4)sc2c1 (stereo not shown) [Example 1414] | 89.5% | < 1 nM |
| O=C(NS(=O)(=O)C1CC1)c1ccc2nc(N3C4CCC3CC(NCc3c(-c5ccccc5C(F)(F)F)noc3C3CC3)C4)sc2c1 (stereo not shown) [Example 1416] | 87.5% | 1 to 100 nM |
| O=C(O)c1ccc2nc(N3CCC(NCc4c(-c5c(Cl)cccc5Cl)noc4C4CC4)CC3)sc2c1 [Example 174] | 132% | 1 to 100 nM |
| Cc1cc2nc(N3C4CCC3CC(NCc3c(-c5c(Cl)cccc5Cl)noc3C3CC3)C4)sc2cc1C(=O)O (stereo not shown) [Example 194] | 81% | < 1 nM |
| CC(C)Oc1cc(C(=O)NS(=O)(=O)C2CC2)cc2sc(N3C4CCC3CC(NCc3c(-c5ccccc5C(F)(F)F)noc3C3CC3)C4)nc12 (stereo not shown) [Example 1415] | 106% | 1 to 100 nM |
